The subject of data set [1] is Staphylococcus aureus (ATCC 6538P). The experiment in a line: Antibacterial screen (MIC, 96 well microtitre broth dilution) against S. aureus. It is filed as cell-based. To be noted: 37° C. for 18 hours, highest dilution of compound that prevented bacterial growth. The method, then:
General Methods for Antibacterial Screens
• SA: Staphylococcus aureus • PA: Pseudomonas aeruginosa • KP: Klebsiella pneumoniae • SP: Streptococcus pneumoniae Bacterial Strains Used: • Staphylococcus aureus (ATCC 6538P) • Pseudonmonas aeruginosa (ATCC 27853) • Klebsiella pneumoniae (IP103623) • Streptococcus pneumoniae (IP53146) Culture Media
Mueller-Hinton Broth Medium (MHB): MHB (Oxoid CM405) was prepared with final concentrations of 1 μg/mL MgCl2 and 2 μg/mL CaCl2. Culture medium was pre-warmed for approximately 2-3 hours at 37° C. before use.
From thawed cryovials, P. aeruginosa, K. pneumoniae and S. aureus were streaked onto Mueller Hinton Agar (MHA), and S. pneumoniae was streaked onto Blood Agar (BA), and plates were incubated overnight at 37° C. For each bacterial strain, 10 cryovials were prepared by looping several colonies into 0.5 mL of 20% glycerol solution. The cryovials were immediately stored at −140° C.
A cryovial was removed from −140° C. storage and thawed at room temperature. An MHA plate was streaked with a loopful of bacterial suspension and incubated overnight at 37° C. to create a parent plate (P1). A daughter plate (D1) was streaked from the parent plate and incubated overnight at 37° C. The parent plate was stored at 4° C. A loop of colony from the daughter plate was used to inoculate a 125 mL flask containing 20 mL of Mueller Hinton Broth (MHB) containing 25 μg/mL CaCl2.2H2O and 12.5 μ/mL MgCl2.6H2O. The flask was shaken at 260 rpm for 18 hours at 37° C. on an orbital incubator shaker. The parent plate (P1) was reused within 9 days to generate another daughter plate (D2), which, in turn, was used to inoculate a broth culture. Parent plates were used twice (to generate D1 and D2 plates) before a new one was prepared from the previously thawed cryovial. The second parent plate (P2) was used to generate two additional daughter plates using the procedure outlined above before being discarded. Cryovials were used twice to prepare parent plates (P1 and P2) before being discarded.
Prepare a 1/10 dilution of Seed Cultures by adding 250 μl of the cultures to 2,250 μl of MHB in a disposable cuvette. Read OD650 and multiply OD650 by a factor of 10 to calculate the optical density of the undiluted culture. Calculate the required dilution factor by dividing the observed OD650 by the standard OD650 for each strain (previously determined in assay optimisation studies).
Prepare sufficient volumes of the final inoculum cultures in pre-warmed MHB (37° C.) by diluting the standardised cultures to the required final concentration. The final dilutions used for each of the bacterial strains were as follows: • K. pneumoniae—10^6 dilution; • P. aeruginosa—10^6 dilution; • S. aureus—10^8 dilution; • S. pneumoniae—10^4 dilution. Assay Procedure (for 96 well Microtiter Plates)
Add 50 microliters of liquid medium to each well of a 96 well microtitre plate. Dissolve test samples in liquid medium. Add 50 microliters of test sample in triplicate to the top row of the microtitre plate, and include a vancomycin control set. Also include a compound negative control well set. Allow inoculated culture medium to incubate at 37° C. for 30 minutes, shaking at 130 rpm. Using a multichannel pipette, mix the contents of the first row and transfer 50 microliters of mixed broth solutions to the next row, change tips and repeat until the last row contains diluted compound or control and discard 50 microliters from the last row. Each well should now contain 50 microliters of diluted compound or negative control medium. Using a multistepper pipette add 50 microliters of inoculum to each well of the plate, save for one row containing the compound negative control, to this row add 50 microliters of liquid broth. Incubate plates at 37° C. for 18 hours, shaking at 100 rpm in an environment of approximately 90% relative humidity. Results were recorded as the highest dilution of compound that prevented bacterial growth (MIC).

Data set [2] concerns D-Ala-D-lactate terminus of the peptidoglycan. To be noted: D-Ala-D-lactate terminus versus D-Ala-D-Ala terminus; cited from earlier work.
[3] abbreviates: Staphylococcus aureus, ATCC6538P, read-out: MIC.

≈ marks a conversion by molar mass, not a printed value. Where two headings read alike, the source gives them in different places.

We go through 24 compounds from US7612036B2, “Peptoid compounds” (University of Wollongong, priority 2001, dated 2009).

In turn, `C=CC[C@H](NC(=O)[C@H](CCCCN)NC(=O)Cc1cn(CC=C)c2ccccc12)C(=O)OC` came in with a melting point of 103 to 106 °C.
On to `COC(=O)C1CC=CCc2cc3ccccc3c(c2OC)-c2c(OC)c(cc3ccccc23)CC(NC(C)=O)C(=O)NC(CCCNC(=N)N)C(=O)N1.Cl` (single isomer, unassigned) [21A (another isomer)], for which, in data set [1] (hydrochloride), the MIC turned out to be 64 µg/mL.
Regarding `CN[C@H](CC(C)C)C(=O)N[C@H]1C(=O)N[C@@H](CC(N)=O)C(=O)N[C@H]2C(=O)N[C@H]3C(=O)N[C@H](C(=O)N[C@H](C(=O)O)c4cc(O)cc(O)c4-c4cc3ccc4O)[C@H](O)c3ccc(c(Cl)c3)Oc3cc2cc(c3O[C@@H]2O[C@H](CO)[C@@H](O)[C@H](O)[C@H]2O[C@H]2C[C@](C)(N)[C@H](O)[C@H](C)O2)Oc2ccc(cc2Cl)[C@H]1O` [Vancomycin], the decrease in affinity result in data set [2] is listed as “ca. 1000 fold”.
Compound `C=CCOc1ccc2ccccc2c1-c1c(OCCCC(=O)N[C@H](CCCCNC(=N)N)C(=O)N[C@@H](CC=C)C(=O)OC)ccc2ccccc12.Cl` [Example 111, methyl (aS/R,2S,5R)-2-allyl-10-(2′-allyloxy-1,1′-binaphth-2-oxy)-3,6-diaza-5-(4-guanidinobutyl)-4,7-dioxodecanoate hydrochloride] showed an MIC in data set [1] of 8 µg/mL.
Same read-out and setting: then “methyl (aR/S,2S,5R)-2-allyl-5-[2-({[(2′-allyloxy-1,1′-binaphthoxymethyl]carbonyl}amino)-3-aza-9-guanidino-4-oxononanoate hydrochloride [Example 101]”, with 8 µg/mL; and “6-Acetamido-8,11-diaza-9-(3-guanidinopropyl)-12-methoxycarbonyl-7,10-dioxo-[12](3,6)-1H-carbazolophane HCl (9S,12S) [Example 36]”, with 32 µg/mL; and `CCCc1ccc2[nH]c3ccc(CC(NC(C)=O)C(=O)N[C@H](CCCCN)C(=O)N[C@@H](CCC)C(=O)OC)cc3c2c1.Cl` (single isomer, unassigned) [44 (one isomer)], with 32 µg/mL.
As for `COC(=O)[C@@H]1CC=CCOc2ccc3ccccc3c2-c2c(ccc3ccccc23)OCC(=O)N[C@H](CCCCNC(=N)N)C(=O)N1.Cl` [Example 103, (aR,S,7R,10S)-6,9-diaza-3,15-dioxa-5,8-dioxo-7-(4-guanidinobutyl)-10-methoxycarbonyl-1(1,2),2(1,2)-dinaphthalenacyclopentadecaphane-12-ene hydrochloride], the MIC in data set [1] was found to be 8 µg/mL.
Take `COC(=O)[C@@H]1C/C=C/COc2ccc3ccccc3c2-c2c(ccc3ccccc23)OCCCC(=O)N[C@H](CCCCN)C(=O)N1.Cl` [Example 109]: the MIC in data set [1] (setting [3]) worked out at 64 µg/mL.
Consider `C=CCOc1ccc2ccccc2c1-c1c(OCC(=O)N[C@H](CCCCN)C(=O)N[C@@H](CC=C)C(=O)OC)ccc2ccccc12.Cl` [Example 97], for which the MIC in data set [1] (setting [3]) was 4 µg/mL.
As for `C=CCc1cc2ccccc2c(-c2c(OC)c(CC(NC(C)=O)C(=O)N[C@H](CCCCNC(=O)OC(C)(C)C)C(=O)N[C@@H](CC=C)C(=O)OCc3ccccc3)cc3ccccc23)c1OC` (stereo partly drawn) [Example 13A, benzyl (aR/S,2S,5R)-8-acetamido-2-allyl-9-{3-[3′-allyl-2,2′-dimethoxy-1,1′-binaphthyl]}-3,6-diaza-5-(4-{[(tert-butoxy)carbonyl]amino}butyl)-4,7-dioxononanoate], in data set [1], the MIC turned out to be 4 µg/mL (≈ 4.45 µM).
With `COC(=O)C1CC=CCc2cc3ccccc3c(c2OC)-c2c(OC)c(cc3ccccc23)CC(NC(C)=O)C(=O)NC(CCCNC(=N)N)C(=O)N1.Cl` (single isomer, unassigned) [21A (one isomer)], the MIC in data set [1] (hydrochloride) worked out at 16 µg/mL.
For the compound “(aR/S,7R,10S)-4-acetamido-6,9-diaza-10-benzyloxycarbonyl-7-(4-{[(tert-butoxy)carbonyl]amino}butyl)-1(1,3),2(1,3)-di(2-methoxynaphthalena)-5,8-dioxocyclotetradecaphane-12-ene [Example 15B]”, the MIC in data set [1] was 16 µg/mL.
As to `C=CCc1cc2ccccc2c(-c2c(OC)c(CC(NC(C)=O)C(=O)N[C@H](CCCNC(=N)N)C(=O)N[C@@H](CC=C)C(=O)OC)cc3ccccc23)c1OC.Cl` (stereo partly drawn) [Example 19A, methyl (aR/S,2S,5R)-8-acetamido-2-allyl-9-[3-(3′-allyl-2,2′-dimethoxy-1,1′-binaphthyl)]-3,6-diaza-5-(3-guanidinopropyl)-4,7-dioxononanoate hydrochloride], the MIC in data set [1] was determined as 4 µg/mL.
The same measure, in the same setting: then `CCCc1ccc2[nH]c3ccc(CC(NC(C)=O)C(=O)N[C@H](CCCCN)C(=O)N[C@@H](CCC)C(=O)OC)cc3c2c1.Cl` (single isomer, unassigned) [44 (another isomer)], with 64 µg/mL.
As for “6-Acetamido-8,11-diaza-14-ene-9-(3-guanidinopropyl)-12-methoxycarbonyl-7,10-dioxo-[12](3,6)-1H-carbazolophane HCl (9R,12S) [Example 37]”, in data set [1], the minimal inhibitory concentration (MIC) was 64 µg/mL.
Take `C=CCOc1ccc2ccccc2c1-c1c(OCCCC(=O)N[C@H](CCCCN)C(=O)N[C@@H](CC=C)C(=O)OC)ccc2ccccc12.Cl` [Example 107, methyl (aS/R,2S,5R)-2-allyl-10-(2′-allyloxy-1,1′-binaphth-2-oxy)-5-(4-aminobutyl)-3,6-diaza-4,7-dioxodecanoate hydrochloride]: in data set [1] (setting [3]), the MIC was 16 µg/mL.
As for `COC(=O)C1CCC=COc2ccc3ccccc3c2-c2c(ccc3ccccc23)OCCCC(=O)NC(CCCCNC(=N)N)C(=O)N1.Cl` [Example 113, (aR/S,9R,12S)-8,11-diaza-9-(4-guanidinobutyl)-12-methoxycarbonyl-1(1,2),2(1,2)-dinaphthalena-3,17-dioxa-7,10-dioxoheptadecaphane-15-ene hydrochloride], in data set [1], the MIC turned out to be 8 µg/mL.
“6-Acetamido-8,11-diaza-9-(3-guanidinopropyl)-12-methoxycarbonyl-7,10-dioxo-[12](3,6)-1H-carbazolophane HCl (9R,12S) [Example 38]”: the minimum inhibitory concentration (MIC) in data set [1] was 32 µg/mL.
The compound `COC(=O)C1CC=CCc2cc3ccccc3c(c2OC)-c2c(OC)c(cc3ccccc23)CC(NC(C)=O)C(=O)NC(CCCCN)C(=O)N1.Cl` (single isomer, unassigned) [15 (one isomer)] had an MIC in data set [1] of 8 µg/mL.
In data set [1], “6-Acetamido-9-(4-aminobutyl)-8,11-diaza-12-methoxycarbonyl-7,10-dioxo-[12](3,6)-1H-carbazolophane HCl (9R,12S) [Example 42]” displayed an MIC of 64 µg/mL.
Compound `COC(=O)C1CCCCc2cc3ccccc3c(c2OC)-c2c(OC)c(cc3ccccc23)CC(NC(C)=O)C(=O)NC(CCCCN)C(=O)N1.Cl` [Example 15A, (aR/S,7R,10S)-4-acetamido-7-(4-aminobutyl)-6,9-diaza-10-methoxycarbonyl-1(1,3),2(1,3)-di(2-methoxynaphthalena)-5,8-dioxocyclotetradecaphane hydrochloride] yielded an MIC in data set [1] of 16 µg/mL.
Same read-out and setting: then “6-Acetamido-9-(4-aminobutyl)-8,11-diaza-12-methoxycarbonyl-7,10-dioxo-[12](3,6)-1H-carbazolophane HCl (9S,12S) [Example 40]”, with 64 µg/mL; and “6-Acetamido-9-(4-aminobutyl)-8,11-diaza-1-tert-butoxycarbonyl-14-ene-12-methoxycarbonyl-7,10-dioxo-[12](3,6)-1H-carbazolophane HCl (9S,12S) [Example 39A]”, with 32 µg/mL.

As usually defined, the melting point is the temperature of the solid-liquid transition. As a reminder, the MIC is the lowest concentration that inhibits growth of the organism.
